ChEMBL document CHEMBL1201862, “PubChem BioAssay data set” (2004)
Active and inactive are the calls of the source.

What was measured:
[1] = molecular target: T1, Apoptotic protease-activating factor 1 (Homo sapiens, UniProt O14727); assay type: functional
T1 sequence (O14727 whole entry): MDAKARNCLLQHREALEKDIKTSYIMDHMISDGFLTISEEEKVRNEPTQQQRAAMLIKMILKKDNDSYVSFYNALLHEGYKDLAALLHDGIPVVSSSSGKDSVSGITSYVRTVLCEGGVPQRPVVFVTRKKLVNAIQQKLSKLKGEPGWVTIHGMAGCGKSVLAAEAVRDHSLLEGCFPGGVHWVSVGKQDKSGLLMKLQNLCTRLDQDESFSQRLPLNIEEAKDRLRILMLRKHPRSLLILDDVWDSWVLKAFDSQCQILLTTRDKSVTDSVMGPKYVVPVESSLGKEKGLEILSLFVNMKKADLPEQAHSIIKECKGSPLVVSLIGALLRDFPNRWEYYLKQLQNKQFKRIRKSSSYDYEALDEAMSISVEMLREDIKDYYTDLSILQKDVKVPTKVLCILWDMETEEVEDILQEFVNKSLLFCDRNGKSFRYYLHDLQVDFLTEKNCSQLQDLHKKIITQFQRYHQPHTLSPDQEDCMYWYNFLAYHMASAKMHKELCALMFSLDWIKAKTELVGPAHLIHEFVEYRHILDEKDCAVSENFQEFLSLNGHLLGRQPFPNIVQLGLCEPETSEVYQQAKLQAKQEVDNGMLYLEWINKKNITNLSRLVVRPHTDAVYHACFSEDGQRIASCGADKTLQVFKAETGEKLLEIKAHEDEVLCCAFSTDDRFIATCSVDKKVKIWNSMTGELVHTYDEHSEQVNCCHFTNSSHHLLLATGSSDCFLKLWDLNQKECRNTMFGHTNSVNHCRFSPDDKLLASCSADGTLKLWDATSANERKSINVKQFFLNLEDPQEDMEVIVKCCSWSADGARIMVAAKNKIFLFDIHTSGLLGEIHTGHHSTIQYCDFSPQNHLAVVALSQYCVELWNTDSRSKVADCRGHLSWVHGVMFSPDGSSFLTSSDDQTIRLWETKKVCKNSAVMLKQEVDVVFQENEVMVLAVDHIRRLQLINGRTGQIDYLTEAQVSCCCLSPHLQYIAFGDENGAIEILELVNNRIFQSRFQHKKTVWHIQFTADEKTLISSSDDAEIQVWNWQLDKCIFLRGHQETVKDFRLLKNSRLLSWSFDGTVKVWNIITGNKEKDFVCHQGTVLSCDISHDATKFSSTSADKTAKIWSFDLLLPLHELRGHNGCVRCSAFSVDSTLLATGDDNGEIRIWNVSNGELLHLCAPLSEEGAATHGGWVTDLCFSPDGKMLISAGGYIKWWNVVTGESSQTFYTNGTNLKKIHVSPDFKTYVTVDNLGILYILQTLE

BJ [2] = test: cytotoxicity toward Ras-transformed BJeLR fibroblasts, dose response, cell-based, alamar blue fluorescence, cherrypicked samples (AID 2631); assay type: functional; details: Homo sapiens;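 further: confirmatory dose-response assay in RAS-dependent BJ fibroblasts engineered with TERT, LT and ST, with cytotoxicity read by fluorescence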
INS1 = test: beta cell apoptosis inhibitors, cytokine rescue, dose response, luminescence, retest (AID 449756); assay type: functional, cell-based; details: Rattus norvegicus;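 further: cell death triggered by IL-1 beta plus TNF-alpha plus IFN-gamma mixture; protective hits raise ATP signal compared with cytokine alone wells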
[3] = molecular target: Mothers against decapentaplegic homolog 3 (Homo sapiens, UniProt P84022); test: SMAD3 transcription factor inhibitors, dose response (AID 715); assay type: functional
Mothers against decapentaplegic homolog 3, sequence (P84022 whole entry): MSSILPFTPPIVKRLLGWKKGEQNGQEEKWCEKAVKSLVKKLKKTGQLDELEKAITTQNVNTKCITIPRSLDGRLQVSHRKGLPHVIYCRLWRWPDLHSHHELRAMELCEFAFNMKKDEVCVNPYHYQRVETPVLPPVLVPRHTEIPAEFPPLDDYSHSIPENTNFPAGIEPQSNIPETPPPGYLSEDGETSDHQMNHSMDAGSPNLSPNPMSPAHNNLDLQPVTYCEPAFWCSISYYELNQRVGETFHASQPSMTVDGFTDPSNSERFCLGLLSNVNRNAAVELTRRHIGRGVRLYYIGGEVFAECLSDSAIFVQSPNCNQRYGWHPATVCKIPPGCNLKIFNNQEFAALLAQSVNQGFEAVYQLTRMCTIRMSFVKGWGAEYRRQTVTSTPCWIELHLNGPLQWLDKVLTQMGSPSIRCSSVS

BJ [4] = test: cells; assay type: functional, cell-based; details: Homo sapiens
BJ [5] = test: cytotoxicity toward BJ-TERT fibroblasts, dose response, cell-based, RAS-independent, luminescence (AID 1933); assay type: functional; details: Homo sapiens
BJ [6] = test: cytotoxicity toward BJ-TERT-LT-ST fibroblasts, dose response, cell-based, RAS-independent, luminescence (AID 1935); assay type: functional; details: Homo sapiens;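 further: BJ fibroblasts immortalized with TERT plus LT and ST oncogenes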
[7] = growth suppression of PTEN-null colon cells, dose response, cell-based, HCT116 PTEN knockout (AID 1047); assay type: functional;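 further: HCT116 colon tumor cells with PTEN knocked out; cells exposed to compound for 60 hours before readout; potency for loss of cell viability measured by luminescence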
[8] = growth suppression of beta-catenin-knockout colon cells, dose response, cell-based, HCT116, human colon tumor (AID 1045); assay type: functional;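 further: HCT116 colon tumor cells with beta catenin knocked out; cells exposed to compound for 60 hours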
[9] = molecular target: T2, Heat shock factor protein 1 (Mus musculus, UniProt P38532); test: inhibition of MG132-induced HSE-luciferase signal, confirmation, cell-based, NIH3T3, luminescence, dose retest (AID 2382); assay type: functional;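 further: NIH3T3 fibroblasts with HSF1-driven luciferase reporter stressed by proteasome inhibitor MG132; luminescence from HSF1-driven luciferase expression after 8 hours of MG132 stress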
T2 sequence (P38532 whole entry): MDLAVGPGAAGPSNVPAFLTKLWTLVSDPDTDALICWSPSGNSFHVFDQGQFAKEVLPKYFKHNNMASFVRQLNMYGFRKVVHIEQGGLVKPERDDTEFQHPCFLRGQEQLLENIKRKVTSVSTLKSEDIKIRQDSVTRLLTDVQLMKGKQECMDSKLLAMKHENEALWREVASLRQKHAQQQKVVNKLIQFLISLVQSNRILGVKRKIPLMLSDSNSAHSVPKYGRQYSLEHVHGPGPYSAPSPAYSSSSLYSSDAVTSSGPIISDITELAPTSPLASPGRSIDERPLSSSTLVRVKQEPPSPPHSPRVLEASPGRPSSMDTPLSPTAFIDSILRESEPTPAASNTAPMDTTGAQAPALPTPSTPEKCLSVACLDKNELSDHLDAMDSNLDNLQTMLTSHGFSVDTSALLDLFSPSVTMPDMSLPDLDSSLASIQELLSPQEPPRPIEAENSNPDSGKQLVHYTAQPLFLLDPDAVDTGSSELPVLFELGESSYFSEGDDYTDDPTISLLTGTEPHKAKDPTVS

[10] = cytotoxicity toward DRD oncogenic fibroblasts, dose response, cell-based, non-viral oncogenic, luminescence (AID 1934); assay type: functional; details: Homo sapiens
[11] = Shn3 3'UTR reporter inhibitors, dose response, cell-based, Clone20 osteoblasts, firefly luciferase, cherry-picked (AID 624132); assay type: functional;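 further: firefly luciferase luminescence from reporter carrying the Shn3 3'UTR in osteoblasts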
[12] = molecular target: Potassium voltage-gated channel subfamily KQT member 2 (Rattus norvegicus, UniProt O88943, W236L); test: KCNQ2 channel potentiators, dose response, mechanism study for KCNQ2 potentiator project, cell-based, automated electrophysiology (AID 2603); assay type: functional
Potassium voltage-gated channel subfamily KQT member 2, sequence (O88943 whole entry W236L): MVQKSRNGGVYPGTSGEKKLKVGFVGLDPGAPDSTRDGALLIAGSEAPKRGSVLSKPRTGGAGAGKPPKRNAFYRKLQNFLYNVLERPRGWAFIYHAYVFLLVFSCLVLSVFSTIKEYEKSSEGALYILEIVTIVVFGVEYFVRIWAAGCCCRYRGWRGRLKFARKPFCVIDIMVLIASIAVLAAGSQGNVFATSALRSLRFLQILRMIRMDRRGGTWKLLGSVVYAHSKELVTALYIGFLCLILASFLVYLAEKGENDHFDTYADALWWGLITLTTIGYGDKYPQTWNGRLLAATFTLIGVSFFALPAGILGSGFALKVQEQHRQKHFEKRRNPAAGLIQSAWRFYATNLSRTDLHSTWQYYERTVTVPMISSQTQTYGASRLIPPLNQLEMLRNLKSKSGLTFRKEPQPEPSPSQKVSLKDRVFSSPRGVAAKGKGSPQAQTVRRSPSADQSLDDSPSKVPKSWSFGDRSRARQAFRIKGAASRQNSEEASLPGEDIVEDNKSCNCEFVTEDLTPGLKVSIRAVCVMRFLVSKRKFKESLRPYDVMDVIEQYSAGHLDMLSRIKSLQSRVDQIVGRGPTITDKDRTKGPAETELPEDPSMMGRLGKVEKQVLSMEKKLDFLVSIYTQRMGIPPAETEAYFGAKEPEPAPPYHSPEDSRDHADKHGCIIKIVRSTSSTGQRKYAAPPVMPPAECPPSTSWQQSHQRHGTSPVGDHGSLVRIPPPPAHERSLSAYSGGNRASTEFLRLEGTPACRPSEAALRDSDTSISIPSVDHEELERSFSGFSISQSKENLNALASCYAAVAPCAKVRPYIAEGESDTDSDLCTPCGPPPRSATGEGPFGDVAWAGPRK

[13] = molecular target: T3, Replicative DNA helicase DnaB (Mycobacterium tuberculosis, UniProt P9WMR3); test: DnaB intein splicing inhibitors, dose response, biochemical, cell-free fluorescence (AID 449749); assay type: functional
T3 sequence (P9WMR3 whole entry): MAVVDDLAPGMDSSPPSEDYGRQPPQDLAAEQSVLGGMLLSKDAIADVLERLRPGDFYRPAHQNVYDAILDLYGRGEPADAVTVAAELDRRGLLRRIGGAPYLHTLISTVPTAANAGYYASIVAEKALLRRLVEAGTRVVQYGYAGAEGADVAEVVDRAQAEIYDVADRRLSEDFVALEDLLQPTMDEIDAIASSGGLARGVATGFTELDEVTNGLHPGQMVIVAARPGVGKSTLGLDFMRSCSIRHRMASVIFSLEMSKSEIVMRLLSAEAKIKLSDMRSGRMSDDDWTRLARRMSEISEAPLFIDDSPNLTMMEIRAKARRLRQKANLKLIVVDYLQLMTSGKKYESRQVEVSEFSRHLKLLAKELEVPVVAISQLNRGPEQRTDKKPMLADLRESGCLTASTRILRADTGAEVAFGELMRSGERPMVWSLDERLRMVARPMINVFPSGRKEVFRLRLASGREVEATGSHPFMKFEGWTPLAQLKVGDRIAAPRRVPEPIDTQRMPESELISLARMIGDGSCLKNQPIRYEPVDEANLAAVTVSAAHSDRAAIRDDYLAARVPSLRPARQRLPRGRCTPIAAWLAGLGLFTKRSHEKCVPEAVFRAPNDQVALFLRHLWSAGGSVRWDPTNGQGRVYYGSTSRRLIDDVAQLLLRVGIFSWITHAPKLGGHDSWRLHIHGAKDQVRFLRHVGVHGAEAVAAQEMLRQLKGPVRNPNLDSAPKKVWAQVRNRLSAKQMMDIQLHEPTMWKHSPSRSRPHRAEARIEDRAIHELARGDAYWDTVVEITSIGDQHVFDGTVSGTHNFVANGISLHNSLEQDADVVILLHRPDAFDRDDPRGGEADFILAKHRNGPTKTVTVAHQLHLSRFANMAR

[14] = molecular target: ATP-binding cassette sub-family B member 6 (Homo sapiens, UniProt Q9NP58); test: ABCB6 transporter inhibitors, porphyrin accumulation, dose response, flow cytometry, K562-ABCB6 cells, cherry pick 02 (AID 624487); assay type: functional; details: read-out: EC50_MICROM
ATP-binding cassette sub-family B member 6, sequence (Q9NP58 whole entry): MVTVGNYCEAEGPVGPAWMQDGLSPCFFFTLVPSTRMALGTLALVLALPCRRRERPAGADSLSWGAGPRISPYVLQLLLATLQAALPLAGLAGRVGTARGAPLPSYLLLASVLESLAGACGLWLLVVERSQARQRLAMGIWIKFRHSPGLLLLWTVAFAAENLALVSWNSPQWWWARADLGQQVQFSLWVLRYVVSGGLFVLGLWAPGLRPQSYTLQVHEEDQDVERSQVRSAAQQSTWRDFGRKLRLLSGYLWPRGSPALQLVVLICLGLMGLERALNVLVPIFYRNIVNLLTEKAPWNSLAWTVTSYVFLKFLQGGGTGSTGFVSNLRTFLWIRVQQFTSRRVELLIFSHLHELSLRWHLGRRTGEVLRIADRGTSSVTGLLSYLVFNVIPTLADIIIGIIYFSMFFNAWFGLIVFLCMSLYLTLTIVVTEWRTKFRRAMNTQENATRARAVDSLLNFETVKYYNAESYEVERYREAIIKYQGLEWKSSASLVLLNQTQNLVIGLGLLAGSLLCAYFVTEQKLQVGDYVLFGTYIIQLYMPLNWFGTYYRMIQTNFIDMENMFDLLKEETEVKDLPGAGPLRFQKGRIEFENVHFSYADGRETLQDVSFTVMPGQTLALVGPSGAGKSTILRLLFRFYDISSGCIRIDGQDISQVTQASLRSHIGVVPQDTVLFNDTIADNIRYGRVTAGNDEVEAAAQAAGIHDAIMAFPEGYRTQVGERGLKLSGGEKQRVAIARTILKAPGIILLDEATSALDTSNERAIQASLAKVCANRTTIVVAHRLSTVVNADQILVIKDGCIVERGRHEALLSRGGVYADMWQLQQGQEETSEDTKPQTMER

Genome polyprotein = Genome polyprotein (dengue virus type 2, UniProt P29990); test: Dengue-2 NS5 methyltransferase inhibitors, primary screen, biochemical, confirmation dose response (AID 588689); assay type: functional
Genome polyprotein, sequence (P29990 2492-3391 limits assumed): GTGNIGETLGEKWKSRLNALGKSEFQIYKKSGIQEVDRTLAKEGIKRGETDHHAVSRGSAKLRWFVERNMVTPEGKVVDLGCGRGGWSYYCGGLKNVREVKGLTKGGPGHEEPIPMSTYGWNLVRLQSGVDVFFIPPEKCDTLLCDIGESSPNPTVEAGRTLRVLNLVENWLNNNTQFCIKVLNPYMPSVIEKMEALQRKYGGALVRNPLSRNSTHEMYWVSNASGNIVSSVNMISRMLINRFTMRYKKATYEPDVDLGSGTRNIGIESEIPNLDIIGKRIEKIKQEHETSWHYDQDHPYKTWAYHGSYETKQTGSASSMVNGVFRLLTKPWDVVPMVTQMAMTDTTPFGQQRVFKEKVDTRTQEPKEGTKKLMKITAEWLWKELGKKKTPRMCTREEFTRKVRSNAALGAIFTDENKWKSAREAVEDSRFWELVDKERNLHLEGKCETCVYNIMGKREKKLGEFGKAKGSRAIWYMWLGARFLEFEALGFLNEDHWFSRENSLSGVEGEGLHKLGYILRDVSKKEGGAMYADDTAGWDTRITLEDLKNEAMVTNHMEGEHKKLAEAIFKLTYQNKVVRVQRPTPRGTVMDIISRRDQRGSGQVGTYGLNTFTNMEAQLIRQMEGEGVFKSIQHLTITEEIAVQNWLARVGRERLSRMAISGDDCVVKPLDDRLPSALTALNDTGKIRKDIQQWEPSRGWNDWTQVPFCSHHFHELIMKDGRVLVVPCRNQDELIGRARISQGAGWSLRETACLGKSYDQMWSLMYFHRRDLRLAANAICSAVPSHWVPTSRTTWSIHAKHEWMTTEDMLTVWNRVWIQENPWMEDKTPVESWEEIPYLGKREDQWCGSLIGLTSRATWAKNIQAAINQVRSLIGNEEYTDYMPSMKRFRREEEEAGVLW

[15] = molecular target: T4, High affinity choline transporter 1 (Homo sapiens, UniProt Q9GZV3); test: CHT inhibitors, dose response, cell-based, 5-point CRC, membrane potential dye (AID 504840); assay type: functional
T4 sequence (Q9GZV3 whole entry): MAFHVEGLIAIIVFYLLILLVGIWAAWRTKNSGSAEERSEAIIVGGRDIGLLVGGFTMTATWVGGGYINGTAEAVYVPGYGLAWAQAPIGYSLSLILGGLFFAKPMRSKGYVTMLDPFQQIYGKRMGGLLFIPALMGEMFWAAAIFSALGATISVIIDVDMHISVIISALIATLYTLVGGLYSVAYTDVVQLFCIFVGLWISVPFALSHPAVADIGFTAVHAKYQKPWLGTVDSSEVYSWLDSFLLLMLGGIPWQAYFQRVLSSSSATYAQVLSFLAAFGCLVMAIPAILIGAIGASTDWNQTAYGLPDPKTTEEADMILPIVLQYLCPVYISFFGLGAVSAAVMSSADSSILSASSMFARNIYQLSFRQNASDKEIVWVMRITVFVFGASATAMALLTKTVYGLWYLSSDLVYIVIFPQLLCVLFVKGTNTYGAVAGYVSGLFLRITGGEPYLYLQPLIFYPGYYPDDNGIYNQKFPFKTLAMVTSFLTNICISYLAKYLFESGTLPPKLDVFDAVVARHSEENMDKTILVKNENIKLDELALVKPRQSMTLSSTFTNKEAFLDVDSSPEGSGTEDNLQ

[16] = control 3'UTR Renilla luciferase suppression, dose response, counter-screen for Shn3 inhibitor project, cell-based, Clone20-Shn3RL, cherry-picked (AID 624133); assay type: functional
Vero = Vero cell cytotoxicity, cytotoxicity control for flavivirus capping enzyme inhibitors (AID 588742); assay type: functional; details: Chlorocebus sabaeus
Protein RecA = molecular target: T5, Protein RecA (Mycobacterium tuberculosis, UniProt P9WHJ3); test: Fluorescence Cell-Free Homogeneous Dose Retest to Identify Inhibitors of RecA-Intein Splicing Activity. [Related pubchem assays (depositor defined):AID2097, AID2223, AID489010, AID492950]; assay type: functional
T5 sequence (P9WHJ3 whole entry): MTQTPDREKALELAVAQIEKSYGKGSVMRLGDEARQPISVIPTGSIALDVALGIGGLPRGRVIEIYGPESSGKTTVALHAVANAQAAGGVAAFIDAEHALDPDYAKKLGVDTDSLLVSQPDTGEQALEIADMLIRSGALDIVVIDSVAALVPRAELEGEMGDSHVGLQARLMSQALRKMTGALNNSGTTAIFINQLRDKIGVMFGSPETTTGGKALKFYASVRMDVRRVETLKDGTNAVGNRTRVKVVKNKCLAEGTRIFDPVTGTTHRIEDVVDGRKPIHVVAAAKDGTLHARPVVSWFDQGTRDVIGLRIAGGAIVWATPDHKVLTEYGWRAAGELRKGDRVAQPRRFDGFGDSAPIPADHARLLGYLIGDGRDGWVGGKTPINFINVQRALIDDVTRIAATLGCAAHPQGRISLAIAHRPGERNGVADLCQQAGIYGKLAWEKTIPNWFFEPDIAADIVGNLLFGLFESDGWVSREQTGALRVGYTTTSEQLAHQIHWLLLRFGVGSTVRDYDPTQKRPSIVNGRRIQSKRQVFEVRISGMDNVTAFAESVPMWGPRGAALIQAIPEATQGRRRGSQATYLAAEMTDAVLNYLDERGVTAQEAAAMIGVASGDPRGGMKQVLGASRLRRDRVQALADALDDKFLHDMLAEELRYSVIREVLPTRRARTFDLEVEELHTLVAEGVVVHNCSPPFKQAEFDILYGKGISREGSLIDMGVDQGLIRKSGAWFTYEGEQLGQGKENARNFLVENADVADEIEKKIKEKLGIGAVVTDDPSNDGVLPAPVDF

[17] = molecular target: 5-hydroxytryptamine receptor 1E (Homo sapiens, UniProt P28566); test: Counterscreen assay for S1P3 antagonists: Dose response cell-based high throughput screening assay to identify antagonists of the 5-Hydroxytryptamine Receptor Subtype 1E (5HT1E). [Related pubchem assays: 1429, 485 ]; assay type: functional
5-hydroxytryptamine receptor 1E, sequence (P28566 whole entry): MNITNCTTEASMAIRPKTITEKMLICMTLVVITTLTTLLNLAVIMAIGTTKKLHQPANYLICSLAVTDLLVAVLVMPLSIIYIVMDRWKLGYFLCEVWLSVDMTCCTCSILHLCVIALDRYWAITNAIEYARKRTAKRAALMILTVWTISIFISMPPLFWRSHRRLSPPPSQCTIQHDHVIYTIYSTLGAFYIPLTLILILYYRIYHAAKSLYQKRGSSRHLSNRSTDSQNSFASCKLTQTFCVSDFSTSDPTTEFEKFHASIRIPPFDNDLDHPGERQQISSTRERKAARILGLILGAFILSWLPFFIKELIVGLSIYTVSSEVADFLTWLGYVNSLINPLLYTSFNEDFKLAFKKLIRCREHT

[18] = molecular target: Sphingosine 1-phosphate receptor 3 (Homo sapiens, UniProt Q99500); test: Dose response cell-based high throughput screening assay for antagonists of the Sphingosine 1-Phosphate Receptor 3 (S1P3). [Related pubchem assays: 1429, 485 ]; assay type: functional
Sphingosine 1-phosphate receptor 3, sequence (Q99500 whole entry): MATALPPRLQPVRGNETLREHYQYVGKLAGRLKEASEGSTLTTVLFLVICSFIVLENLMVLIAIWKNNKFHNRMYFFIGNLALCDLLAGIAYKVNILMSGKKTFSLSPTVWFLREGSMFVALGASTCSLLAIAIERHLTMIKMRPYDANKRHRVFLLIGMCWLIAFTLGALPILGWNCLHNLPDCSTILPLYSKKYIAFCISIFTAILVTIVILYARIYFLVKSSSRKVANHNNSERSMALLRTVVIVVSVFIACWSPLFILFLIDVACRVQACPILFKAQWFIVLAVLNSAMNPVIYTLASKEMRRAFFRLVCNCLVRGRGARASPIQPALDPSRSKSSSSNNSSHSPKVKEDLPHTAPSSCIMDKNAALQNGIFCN

O=C1C(=O)c2ccc(-c3ccccc3)cc2-c2ccccc21
IC50 [1]: 316 nM (active)
EC50 (BJ [2]): 1600 nM (active)
AC50 (INS1): 1040 nM (active)
IC50 [3]: 2000 nM (active)
EC50 (BJ [4]): 2750 nM (inconclusive)
EC50 (BJ [5]): 1020 nM (active)
EC50 (BJ [6]): 1230 nM (inconclusive)
EC50 [7]: 1160 nM (active)
EC50 [8]: 1210 nM (active)
EC50 [9]: 1750 nM (active)
EC50 [10]: 2210 nM (active)

CC(C)c1nnc(NC(=O)c2nc(S(=O)(=O)Cc3ccccc3)ncc2Cl)s1
AC50 [11]: 876 nM (active)
EC50 [12]: 6200 nM (active)
AC50 [13]: 48000 nM (active)
EC50 [14]: 36800 nM (active)
IC50 (Genome polyprotein): > 100000 nM (active)
IC50 [15]: 4470 nM (active)
AC50 [16]: 6320 nM (active)
CC50 (Vero): 25900 nM (active)
EC50 (Protein RecA): 8120 nM (active)

Cc1cc(C(=O)OC(C(=O)Nc2ccc(C)c(Cl)c2)c2ccccc2)c(C)o1 (configuration not stated)
IC50 [17]: 13400 nM (not active)
IC50 [18]: 11800 nM (not active)
